In patent publication US7728012B2, “Carboxamide compounds and their use as calpain inhibitors” (Abbott GmbH & Co. KG, priority 2006, dated 2010):

Key:
[1] = molecular target: T1, calpain-I isolated from human erythrocytes (Homo sapiens, UniProt P07384); assay: Calpain I kinetic fluorescence enzyme inhibition assay; format: biochemical; conditions: apparent Ki from IC50 by Cheng-Prussoff; average of 2 to 4 dose-effect plots
T1 construct: calpain-I—isolated from human erythrocytes; purchased Calbiochem 208713; host or cells: human erythrocytes (tissue isolate)
T1 sequence (P07384 1-714): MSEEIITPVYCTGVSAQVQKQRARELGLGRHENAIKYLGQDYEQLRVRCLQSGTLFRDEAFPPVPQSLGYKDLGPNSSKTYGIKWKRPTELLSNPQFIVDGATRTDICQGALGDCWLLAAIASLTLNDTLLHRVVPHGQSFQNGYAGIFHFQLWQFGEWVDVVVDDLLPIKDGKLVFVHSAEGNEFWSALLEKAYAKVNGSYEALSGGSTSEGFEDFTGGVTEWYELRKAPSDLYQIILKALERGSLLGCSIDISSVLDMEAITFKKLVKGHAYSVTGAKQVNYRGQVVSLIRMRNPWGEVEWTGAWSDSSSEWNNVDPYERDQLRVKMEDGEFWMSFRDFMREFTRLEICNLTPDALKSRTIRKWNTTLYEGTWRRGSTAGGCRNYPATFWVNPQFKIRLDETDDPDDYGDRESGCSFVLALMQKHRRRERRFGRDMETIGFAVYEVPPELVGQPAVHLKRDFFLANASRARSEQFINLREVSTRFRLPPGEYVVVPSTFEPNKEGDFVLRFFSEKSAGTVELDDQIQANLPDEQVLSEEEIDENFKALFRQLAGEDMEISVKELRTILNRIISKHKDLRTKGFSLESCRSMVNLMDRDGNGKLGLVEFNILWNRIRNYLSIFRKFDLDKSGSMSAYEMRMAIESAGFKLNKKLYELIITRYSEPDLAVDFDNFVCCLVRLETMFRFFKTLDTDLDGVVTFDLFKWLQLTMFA
T1 sequence (P04632 1-268 partner): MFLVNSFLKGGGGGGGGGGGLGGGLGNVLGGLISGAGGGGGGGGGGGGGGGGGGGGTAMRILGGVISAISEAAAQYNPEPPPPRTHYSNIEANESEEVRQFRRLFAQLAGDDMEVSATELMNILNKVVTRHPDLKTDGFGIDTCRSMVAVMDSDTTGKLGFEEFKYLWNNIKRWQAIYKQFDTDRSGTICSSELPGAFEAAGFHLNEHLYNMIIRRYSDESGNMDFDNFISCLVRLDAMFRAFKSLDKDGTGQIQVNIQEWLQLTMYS
Protocol: (§1) The following solutions and buffers were employed: • HBS (for 40 ml): 800 μl M HEPES; 2.16 ml 100 mM KCl; 4.8 ml 1M NaCl; 3.59 ml 5% glucose; 60 μl μM MgSO4; 400 μl 100 mM Na pyruvate, 28.19 ml water; pH 7.2-7.5. • lysis buffer (for 20 ml): 400 μl M Tris pH 8.2; 2.74 ml 1M NaCl; 520 μl 0.5M EDTA; 2 ml 10% triton X-100; 0.8 ml (=1:25) CompletePlus (1 tablet/2 ml H2O); 200 μl 100 mM Pefabloc; 13.34 ml water, pH 8.2. • TBST (10×) (for 1 l): 100 mM Tris (12.1 g); 1.5M NaCl (87 g); 1% Tween 20 (10 g), adjusted to pH 8. I Enzyme Inhibition In Vitro: • Testing for blockade of the corresponding enzymic activities was carried out by means of kinetic fluorescence assays (excitation 390 nm, emission 460 nm). • Apparent Ki values were calculated from the experimentally determined IC50 values by the Cheng-Prussoff relation assuming a reversible competitive enzyme inhibition. The Km values of the substrates used under the assay conditions indicated above were: 90 μM (Z-Phe-Arg-AMC, cathepsin B), 10 μM (Z-Gly-Pro-Arg-AMC, cathepsin K), 2 μM (Z-Phe-Arg-AMC, cathepsin L), and 30 μM (Z-Val-Val-Arg-AMC, cathepsin S). • The indicated Ki values are averages of the inhibition constants calculated on the basis of 2 to 4 independent dose-effect plots.
(§2) The following assays were used: • 1. Calpain I: • 20 nM calpain-I—isolated from human erythrocytes (Calbiochem #208713), 100 μM Suc-Leu-Tyr-AMC (Bachem #1-1355) as substrate in buffer with 62 mM imidazole, 0.3 mM CaCl2, 0.10% CHAPS, 0.05% BSA, 1 mM DTT at pH 7.3 and room temperature. • 2. Cathepsin B: • 0.25 nM cathepsin B—isolated from human liver (Calbiochem #219362), 100 μM Z-Phe-Arg-AMC (Bachem #I-1160) as substrate 50 mM MES, 2 mM EDTA, 0.05% Brij 35, 2.5 mM L-cysteine, pH 6.0, room temperature. • 3. Cathepsin K: • 3 nM cathepsin K—activated from recombinant human procathepsin K from E. coli (Calbiochem #342001), 10 μM Z-Gly-Pro-Arg-AMC (Biomol #P-142) as substrate in 50 mM MES, 2 mM EDTA, 0.05% Brij 35, 2.5 mM L-cysteine, pH 6.0, room temperature. • 4. Cathepsin L: • 1 nM cathepsin L—isolated from human liver (Calbiochem #219402), 2 μM Z-Phe-Arg-AMC (Bachem #1-1160) as substrate in 50 mM MES, 2 mM EDTA, 0.05% Brij 35, 2.5 mM L-cysteine, pH 6.0, room temperature. • 5. Cathepsin S: • 0.5 nM recombinant human cathepsin S from E. coli (Calbiochem #219343), 20 μM Z-Val-Val-Arg-AMC (Bachem #1-1540) as substrate in 50 mM MES, 2 mM EDTA, 0.05% Brij 35, 2.5 mM L-cysteine, pH 6.0, room temperature. • The results of the in vitro determination are indicated in Table 1. The following abbreviations are used in Table 1: • The “Calpain activity” column, ++ stands for a calpain Ki (Ki(calpain)) of ≦40 nM and + means: 40 nM<Ki(Calpain)≦100 nM. • The “Sel. cat. B” column indicates the Ki(cathepsin B)/Ki(calpain) ratio. In this connection, ++ means a Ki(cathepsin B)/Ki(calpain) ratio of ≧30 and + means 10≦Ki(cathepsin B)/Ki(calpain)<30. • The “Sel. cat. K” column indicates the Ki(cathepsin K)/Ki(calpain) ratio. In this connection, ++ means a Ki(cathepsin K)/Ki(calpain) ratio of ≧30 and + means 10≦Ki(cathepsin K)/Ki(calpain)<30. • The “Sel. cat. L” column indicates the Ki(cathepsin L)/Ki(calpain) ratio. In this connection, ++ means a Ki(cathepsin L)/Ki(calpain) ratio of ≧50 and + means 30≦Ki(cathepsin L)/Ki(calpain)<50. • The “Sel. cat. S” column indicates the Ki(cathepsin S)/Ki(calpain) ratio. In this connection, ++ means a Ki(cathepsin S)/Ki(calpain) ratio of ≧100 and + means 50≦Ki(cathepsin S)/Ki(calpain)<100.

[2] = molecular target: T2, recombinant human cathepsin S (Homo sapiens, UniProt P25774); assay: Cathepsin S kinetic fluorescence enzyme inhibition assay; format: biochemical; conditions: selectivity ratio versus calpain I
T2 construct: purchased Calbiochem 219343; host or cells: E. coli
T2 sequence (P25774 115-331): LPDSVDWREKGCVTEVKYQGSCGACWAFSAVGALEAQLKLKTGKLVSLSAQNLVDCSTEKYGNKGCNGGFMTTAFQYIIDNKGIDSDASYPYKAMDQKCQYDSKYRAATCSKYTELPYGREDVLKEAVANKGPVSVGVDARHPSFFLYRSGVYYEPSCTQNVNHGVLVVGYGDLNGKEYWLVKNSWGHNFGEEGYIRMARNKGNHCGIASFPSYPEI
Protocol: as §1, §2

Row | Structure (SMILES) | Ki [1] | Sel cat. S (Ki(cathepsin S)/Ki(calpain) ratio) [2]
1 | CCN(CC)Cc1ccc(-c2ccn(-c3ncccc3C(=O)NC(Cc3ccccc3)C(=O)C(N)=O)n2)cc1.Cl (centres unmarked) [Example 43, N-(3-Amino-1-benzyl-2,3-dioxopropyl)-2-(3-{4-[(diethylamino)methyl]phenyl}-1H-pyrazol-1-yl)nicotinamide hydrochloride] | 40 to 100 nM | ++ (Ki(cathepsin S)/Ki(calpain) ratio of ≧100)
2 | NC(=O)C(=O)C(Cc1ccccc1)NC(=O)c1cccnc1-n1ccc(-c2ccc(CN3CCOCC3)cc2)n1 (centres unmarked) [Example 46, N-(3-Amino-1-benzyl-2,3-dioxopropyl)-2-{3-[4-(morpholin-4-ylmethyl)phenyl]-1H-pyrazol-1-yl}nicotinamide] | 40 to 100 nM | ++ (Ki(cathepsin S)/Ki(calpain) ratio of ≧100)
3 | Cl.NC(=O)C(=O)C(Cc1ccccc1)NC(=O)c1cccnc1-n1ccc(-c2cccc(CN3CCOCC3)c2)n1 (centres unmarked) [Example 52, N-(3-Amino-1-benzyl-2,3-dioxopropyl)-2-{3-[3-(morpholin-4-ylmethyl)phenyl]-1H-pyrazol-1-yl}nicotinamide hydrochloride] | 40 to 100 nM | ++ (Ki(cathepsin S)/Ki(calpain) ratio of ≧100)
4 | NC(=O)C(=O)C(Cc1ccccc1)NC(=O)c1cccnc1-n1cc(-c2ccccc2F)cn1 (centres unmarked) [Example 104, N-[3-Amino-2,3-dioxo-1-(phenylmethyl)propyl]-2-[4-(2-fluorophenyl)-1H-pyrazol-1-yl]pyridine-3-carboxamide] | ≤ 40 nM | + (50≦Ki(cathepsin S)/Ki(calpain)<100)
5 | NC(=O)C(=O)C(Cc1ccccc1)NC(=O)c1cccnc1-n1cc(CCN2CCOCC2)c(-c2ccc(F)cc2)n1 (centres unmarked) [Example 165, N-[3-Amino-2,3-dioxo-1-(phenylmethyl)propyl]-2-[3-(4-fluorophenyl)-4-(2-morpholin-4-ylethyl)-1H-pyrazol-1-yl]pyridine-3-carboxamide] | 40 to 100 nM | ++ (Ki(cathepsin S)/Ki(calpain) ratio of ≧100)

More lines, main results first:

Row | Ki [1] | Structure (SMILES) | Sel cat. S (Ki(cathepsin S)/Ki(calpain) ratio) [2]
6 | ≤ 40 nM | CCN(CC)c1ccc(-c2ccn(-c3ncccc3C(=O)NC(Cc3ccccc3)C(=O)C(N)=O)n2)cc1 (centres unmarked) [Example 42, N-(3-Amino-1-benzyl-2,3-dioxopropyl)-2-{3-[4-(diethylamino)phenyl]-1H-pyrazol-1-yl}nicotinamide] | ++ (Ki(cathepsin S)/Ki(calpain) ratio of ≧100)
7 | ≤ 40 nM | CCCCC(NC(=O)c1cccnc1-n1ccc(-c2ccc(CN(CC)CC)cc2)n1)C(=O)C(N)=O (centres unmarked) [Example 44, N-{1-[Amino(oxo)acetyl]pentyl}-2-(3-{4-[(diethylamino)methyl]phenyl}-1H-pyrazol-1-yl)nicotinamide] | + (50≦Ki(cathepsin S)/Ki(calpain)<100)
8 | ≤ 40 nM | CCCCC(NC(=O)c1cccnc1-n1ccc(-c2ccc(CN3CCOCC3)cc2)n1)C(=O)C(N)=O (centres unmarked) [Example 45, N-{1-[Amino(oxo)acetyl]pentyl}-2-{3-[4-(morpholin-4-ylmethyl)phenyl]-1H-pyrazol-1-yl}nicotinamide] | + (50≦Ki(cathepsin S)/Ki(calpain)<100)
9 | ≤ 40 nM | CCCCC(NC(=O)c1cccnc1-n1ccc(-c2ccc(N(CC)CC)cc2)n1)C(=O)C(N)=O (centres unmarked) [Example 47, N-{1-[Amino(oxo)acetyl]pentyl}-2-{3-[4-(diethylamino)phenyl]-1H-pyrazol-1-yl}nicotinamide] | ++ (Ki(cathepsin S)/Ki(calpain) ratio of ≧100)
10 | ≤ 40 nM | NC(=O)C(=O)C(Cc1ccccc1)NC(=O)c1cccnc1-n1ccc(-c2ccc(-n3ccnc3)cc2)n1 (centres unmarked) [Example 101, N-[3-Amino-2,3-dioxo-1-(phenylmethyl)propyl]-2-{3-[4-(1H-imidazol-1-yl)phenyl]-1H-pyrazol-1-yl}pyridine-3-carboxamide] | ++ (Ki(cathepsin S)/Ki(calpain) ratio of ≧100)
